Reference: US20230263808A1 (UNIVERSITY OF FLORIDA RESEARCH FOUNDATION, INCORPORATED, priority 2020, published 2023)
Entries after “also recorded” stand apart in the source; their conditions may differ.

Key:
LPS-induced TNFα = experiment: LPS-induced plasma TNFα levels in mice; type: in vivo, C57BL/6 male mice; settings: mice pretreated with ligand
Text: (§1) A) Correlation of correlation (COC) plots where each point represents the Pearson correlation coefficient, r, between a distinct gene expression or GR-peptide interaction assay with assays indicated on the x and y axes. B) The effects of all tested compounds on IL-1β-induced secretion of IL-6 (y axes) and GC-regulated phenotypes indicated on the x axes. C) The effects of all tested compounds on IL-1β-induced secretion of IL-6 (y axis) and bone mineralization (x axis). D) IL-1β-induced IL-6 production by A549 cells treated with 10 μM of the indicated compounds was compared by AlphaLISA. E-H) Myoblasts were assayed as described in FIG. 8. I) Representative myoblasts imaged during the mitochondrial potential assay. J) Plasma TNFα levels of C57BL/6 male mice treated pretreated with the indicated ligands. K) Changes in lean mass of mice in panel J were determined by whole-body NMR after an additional 18 h LPS treatment. Data shown are mean+SEM.

[1] = Lactate-tolerance test (rate of glucose production); type: in vivo, C57BL/6 male mice; settings: after overnight fast; 10 mg/kg Dex or SR16024, 50 mg/kg SR11466
Text: A) The effects of all tested compounds on IL-1β-induced IL-6 production (x-axes) versus GR interaction with the indicated peptides. B-C) The effects of all tested compounds on the indicated GC-regulated phenotypes (x-axes) versus GR interaction with the CHD9_1023 and CENPR_1 peptides (y-axes). D-F) COC plots. Each point represents the Pearson correlation coefficient, r, between a distinct gene expression or GR-peptide interaction assay with assays indicated on the x and y axes. G) The effects of all tested compounds on IL-1β-induced IL-6 production (y-axes) versus insulin-induced protein synthesis. […] IL-β-induced IL-6 production by A549 cells treated with the indicated compounds was compared by AlphaLISA. […] Mice in panel K were subjected to a lactate-tolerance test (LTT).
We were also interested in whether the compounds would show dissociation between Glut4 translocation in skeletal muscle and gluconeogenesis in the liver, but enhanced glucose production is typically studied after weeks or months of GC treatment. However, we reasoned that an overnight fast should enable detection of effects after a single dose. […] Thus, profiling effects of GCs in the physiological context of nutrient deprivation allowed the discovery of two new types of glucocorticoids with improved profiles in skeletal muscle.

pAKT in C2C12 myotubes = experiment: Insulin-induced pAKT (Thr308) In-Cell Western; type: cell-based, mouse
Experimental: (§2) A) C2C12 myotubes were assayed for chymotrypsin-like proteasomal activity. […] C) Quantitation of the ICW in panel B. D) ICW for surface expression of Glut4 on L6 myotubes. E) ICW for insulin-induced incorporation of puromycin into C2C12 myotube surface proteins. F-G) High-content imaging and analysis of C2C12 myoblasts stained with a Mitotracker dye. H) Assay reproducibility from screening 22 compounds on two separate occasions. The Pearson correlation coefficient, r, and its associated p-value is indicated.
A) Pearson correlations were calculated between the indicated variables. The different lines indicate statistically significant correlations at the corresponding p-value thresholds. Solid lines indicate positive correlations, dashed lines indicate negative correlations. […]
Physiologically, the effects of GCs on protein balance and Glut4 translocation vary in vivo depending upon the stressor. […] To assess protein degradation, we measured chymotrypsin-like proteasomal activity (FIG. 2, A). The activating phosphorylation of AKT at Thr308 (pAKT) was measured using a LI-COR In-Cell Western assay (FIG. 2, B and C). The rate-limiting step in insulin-mediated glucose uptake is the translocation of the glucose transporter, Glut4, to the surface membrane, which we also measured by In-Cell Western without permeabilizing the myotubes (FIG. 2, D). […]

C2C12 myoblasts = experiment: Mitochondrial potential, high-content imaging with MitoTracker dye; type: cell-based, mouse
Experimental: as §2
(§3) A) Each dot represents the effects of a compound in the indicated assays at 10 uM. N=4-6 from two different experiments. […] C) SR11466 is efficacious at inhibiting IL-6 secretion from A549 cells. C-E). […] D) Mitochondrial activity was measured in myoblasts using high content imaging with mitotracker dye after 24 treatment. New amino acid incorporation was measured with LICOR in cell western for puromycin (SunSet assay). E) top, MMTV-luciferase reporter data. N=3, mean+SEM. Bottom, Mineralization of primary human OBs was assayed after two weeks of differentiation from MSC and two weeks of mineralization. N=4, mean+SEM, 2-way ANOVA.
(§4) Physiologically, the effects of GCs on protein balance and Glut4 translocation vary in vivo depending upon the stressor. For example, GCs mediate atrophy in response to fasting but not exercise. […] To assess protein degradation, we measured chymotrypsin-like proteasomal activity (FIG. 2, A). The activating phosphorylation of AKT at Thr308 (pAKT) was measured using a LI-COR In-Cell Western assay (FIG. 2, B and C). The rate-limiting step in insulin-mediated glucose uptake is the translocation of the glucose transporter, Glut4, to the surface membrane, which we also measured by In-Cell Western without permeabilizing the myotubes (FIG. 2, D). Surface Sensing of Translation (SUnSET) (Schmidt et al., Nat Methods 6, 275-277, 2009) assay was used to measure protein synthesis by In-Cell Western, following treatment of myotubes with a low dose of puromycin, which incorporates into translating proteins, but at a low enough level to provide a readout for global protein synthesis (FIG. 2, E). Lastly, we developed a high-content imaging assay in myoblasts stained with a MitoTracker dye, so that individual mitochondrial networks could be visualized with adequate resolution to quantitate area, segmentation, branching, and fluorescence intensity which is a measure of mitochondrial membrane potential (ψm).

L6 myotubes = experiment: Glut4 translocation to the myotube surface (In-Cell Western); type: cell-based, rat
Experimental: as §2
(§5) C2C12 myocytes were used in all assays, except in the Glut4 translocation assay where L6 rat myocytes were used. ICW, In-Cell Western. Also see Methods.
as §4

[2] = Loss of lean mass after a larger dose of LPS (whole-body NMR); type: in vivo, C57BL/6 male mice; settings: additional 18 h LPS treatment
Text: as §1

[3] = system: mitochondrial activity, pAKT, protein synthesis, and bone; experiment: Compound profiling platform, overall profile (FIG. 15); type: cell-based; settings: for overall profile in compound profiling (anabolic effects, agonism): 10 uM
Experimental: N=4-6 from two different experiments. […] D) Mitochondrial activity was measured in myoblasts using high content imaging with mitotracker dye after 24 treatment. New amino acid incorporation was measured with LICOR in cell western for puromycin (SunSet assay). […] N=3, mean+SEM. […] N=4, mean+SEM, 2-way ANOVA.
(§6) To avoid such effects on myogenesis, we switched myoblasts to differentiation media, and then on day 4, added 10 μM cytarabine, a chemotherapy agent that kills dividing cells, and then adding GCs on day 6 or 7 and completing assays in day 8 (FIG. 8).
as §4
Additional studies were performed to assess activities of the various compounds identified from the previous profiling.

C2C12 myotubes [4] = experiment: Insulin-induced protein synthesis (SUnSET, In-Cell Western) in C2C12 myotubes; type: cell-based, mouse; settings: fasting conditions
Experimental: as §2, §5, §6, §4

myoblasts = experiment: Myoblast proliferation and fusion into myotubes; type: cell-based
[5] = background statement; cited from earlier work
C2C12 myotubes [6] = experiment: Protein degradation: chymotrypsin-like proteasomal activity in C2C12 myotubes; type: cell-based, mouse
Experimental: as §2, §5, §6
as §4, with “Lastly, we developed a high-content imaging assay in myoblasts stained with a MitoTracker dye, so that individual mitochondrial networks could be visualized with adequate resolution to quantitate area, segmentation, branching, and fluorescence intensity which is a measure of mitochondrial membrane potential (ψm).” left out

[7] = system: IL-1β-induced IL-6 secretion by A549 lung cells; experiment: IL-1β-induced IL-6 secretion by A549 lung cells (AlphaLISA); type: cell-based; settings: 10 μM
Text: as §1
In order to understand whether effects on skeletal muscle could be dissociated from anti-inflammatory effects of the ligands, we profiled the compounds for suppression of IL1β-induced IL-6 secretion by A549 lung cells. Examining the correlations between assays can be used to identify dissociated assays that selectively correlate with a given phenotype, predicting discovery of dissociated ligands. […] We call this a correlation of correlations (COC) plot. […] These include recruitment of NCOA2 and NCOA3 peptides, coactivators that we and others have shown to be required for GC-dependent suppression of inflammation in different cell types (FIG. 11, A). However, for the mitochondrial assay and IL-6, there are dissociated assays shown by points that are far out from the regression line in the COC plot (FIG. 7, A). For example, interaction of CHD9 with GR predicted mitochondrial activity but not Glut4 translocation (FIG. 11, B), while interaction with the CENPR peptide selectively predicted effects on Glut4 translocation (FIG. 11, C). […] Assays that correlated with effects of the ligands on GR nuclear translocation were also highly correlated with Glut4 translocation and suppression of IL-6 secretion (FIG. 11, F). Therefore, the COC curves provide a way to identify common signaling mechanisms between different GR target tissues and signaling pathways.

GILZ mRNA = experiment: GILZ gene expression; type: cell-based
[8] = system: primary human osteoblasts; experiment: Osteoblast mineralization (Alizarin Red S) from mesenchymal stem cells; type: cell-based
Experimental: as §3
As a further test for dissociation, the compounds were profiled in primary human osteoblasts for effects on osteogenesis during 4 weeks of differentiation from mesenchymal stem cells. Specifically, osteoblast mineralization was examined as follows. Human mesenchymal stem cells (MSCs) at passage 2 were maintained in growth media consisted of alpha-MEM (Life Technologies, 32561-037) supplemented with 17% FBS (Sigma-Aldrich, 12303C), 2 mM L-glutarnine (Life Technologies, 25030-081), and 100 units/mL penicillin/streptomycin (Life Technologies, 15140-122). Effect of glucocorticoid receptor modulators on osteogenic differentiation of MSCs was quantified using Alizarin Red S (Sigma-Aldrich, A5533) staining. Briefly, human MSCs were seeded in the middle 8 wells of 48-well plates at plating density of 10,000 cells per well. PBS (Life Technologies, 10010-031) was added to surrounding wells to reduce evaporation of media in the middle wells during prolonged incubation. 24 h later, growth media was replaced by osteogenic induction media (OIM) consisted of low-glucose DMEM (Life Technologies, 10567-014) supplemented with 10% FBS (Sigma-Aldrich. 12303C), 50 μg/ml L-ascorbic-2-phosphate (Sigma-Aldrich, A8960), 10 mM β-glyceroiphosphate (Sigma-Aldrich, G9891), and glucocorticoid modulators. OIM containing test compounds was replaced every week. At the end of 2 weeks, monolayers were washed with PBS (Life Technologies, 10010-031), incubated in Richard-Allan Scientific™ Neutral Buffered Formalin (10%) (Thermo Scientific, 5725) for 2 h at room temperature, washed with deionized water and stained with Alizarin Red S for 30 min at room temperature. Monolayers were then rinsed 3×with deionized water until clear, stain was then extracted with 10% (w/v) cetylpyridinium chloride (Sigma-Aldrich, C0732) in 10 mM sodium phosphate (Sigma, S5011 and S5136), pH 7.0 for 15 min at room temperature and the amount of extracted dye quantified spectroscopically at 562 nm. Spectroscopic analysis performed using a synergy™ NEO HTS Multi-Mode Microplate Reader (BioTek Instruments, Inc.).

C[C@@H]1C[C@H]2[C@@H]3CCC4=CC(=O)C=C[C@]4(C)[C@@]3(F)[C@@H](O)C[C@]2(C)[C@@]1(O)C(=O)CO [Dex, dexamethasone, reference compound]
LPS-induced TNFα levels in the blood (LPS-induced TNFα): strongly suppressed | rate of glucose production in lactate tolerance test [1]: increased the rate of glucose production | insulin-mediated pAKT after 1 hr of treatment (pAKT in C2C12 myotubes; 1 hr treatment): not inhibited | potency for modulating pAKT (pAKT in C2C12 myotubes; fasting conditions): low nM | Dex concentration sufficient to produce the maximal loss of mitochondrial oxidative capacity (C2C12 myoblasts): 1 nM | effect on mitochondrial activity / potential (C2C12 myoblasts): strongly inhibited; also recorded: reduced | potency for modulating Glut4 translocation (L6 myotubes; fasting conditions): low nM | loss of lean mass following a larger dose of LPS [2]: significantly worsened | dosing at which effects on the insulin signaling pathway are shown ([3]; myotubes, serum starvation, insulin challenge, cytarabine treatment): 1 to 10 nM | potency for modulating protein synthesis (C2C12 myotubes [4]): low nM | fusion into myotubes (myoblasts): promotes fusion | myoblast proliferation (myoblasts): strongly inhibits | concentration required for effects on protein balance in vitro [5]: 50 to 100 µM | effect on protein degradation (proteasomal) (C2C12 myotubes [6]): stimulated protein degradation

Cc1ncccc1NC(=O)c1ccc2c(c1)CC[C@@H]1C[C@@](O)(C(F)(F)F)CC[C@@]21Cc1ccccc1 [PF802, reference compound]
effect on mitochondrial activity / potential (C2C12 myoblasts): strongly inhibited | effect on Glut4 translocation (L6 myotubes): slightly improved compared to Dex | overall profile in compound profiling (anabolic effects, agonism) [3]: partial agonist | effect on protein degradation (proteasomal) (C2C12 myotubes [6]): stimulated protein degradation as strongly as Dex

CC#CC1(O)CCC2C3CCc4cc(C(=O)Nc5cccnc5C)ccc4C3C(OCc3ccccc3)CC21C (stereo not drawn) [SR11469]
inhibition of IL-1β-induced IL-6 secretion (anti-inflammatory) [7]: weakly anti-inflammatory | overall profile in compound profiling (anabolic effects, agonism) [3]: more antagonistic SGRMs; also recorded: anabolic effects | GILZ gene expression (GILZ mRNA): not activating GILZ

CC#CC1(O)CCC2C3CCc4cc(C(=O)Nc5ccc(C)nc5)ccc4C3C(O)CC21C (stereo not drawn) [SR15419]
overall profile in compound profiling (anabolic effects, agonism) [3]: anabolic effects

CC#CC1(O)CCC2C3CCc4cc(C(=O)Nc5ncccc5C)ccc4C3C(O)CC21C (stereo not drawn) [SR15438]
overall profile in compound profiling (anabolic effects, agonism) [3]: anabolic effects

CC#CC1(O)CCC2C3CCc4cc(C(=O)Nc5cccnc5C)ccc4C3C(OC)CC21C (stereo not drawn) [SR15960]
inhibition of IL-1β-induced IL-6 secretion (anti-inflammatory) [7]: fully inhibiting IL-6 secretion

CC#CC1(O)CCC2C3CCc4cc(C(=O)Nc5cccnc5C)ccc4C3C(OCC)CC21C (stereo not drawn) [SR15961]
inhibition of IL-1β-induced IL-6 secretion (anti-inflammatory) [7]: fully inhibiting IL-6 secretion

CC#CC1(O)CCC2C3CCc4cc(C(=O)Nc5cccnc5C)ccc4C3C(OCc3cccc(Cl)c3)CC21C (stereo not drawn) [SR16023]
overall profile in compound profiling (anabolic effects, agonism) [3]: anabolic effects

C[C@]12CC[C@H]3[C@@H](CCC4=CC(=O)CC[C@@]43C)[C@@H]1CC[C@@H]2O [testosterone, reference compound]
effect on mineralization (bone) [8]: no effect
